From patent US20240307370A1, “SIGMA RECEPTOR LIGANDS FOR TREATING SARS-COV-2 INFECTION” (University of Florida Research Foundation, Incorporated, priority 2021, published 2024)
In brackets after ≈: the same amount, converted by molar mass. Like-named read-outs stand apart in the source and are kept apart here.

Experiments:
[1] = tested on: SARS-CoV-2; assay type: cell-based; settings: H23-hACE2, MOI 0.01, 48 hpi, vs mock treated
[2] = tested on: SARS-CoV-2; test: Plaque reduction assay in Vero E6 monolayers; assay type: cell-based; settings: Vero E6, plaques counted at 72 h; for EC50: Severe acute respiratory syndrome coronavirus 2, Vero C1008, 72 h
[3] = tested on: SARS-CoV-2; test: K18-hACE2 mouse SARS-CoV-2 infection model; assay type: in vivo, mice
[4] = tested on: SARS-CoV-2; assay type: cell-based; settings: Vero E6, MOI 0.2, 72 h
[5] = tested on: SARS-CoV-2; test: microbe, parasite or virus in culture; settings: Severe acute respiratory syndrome coronavirus 2, Vero C1008, 72 h
[6] = Toxicity of ligand alone (LDH release, CC50); settings: African green monkey
[7] = tested on: SARS-CoV-2; assay type: cell-based
[8] = tested on: H23 cells; test: Phospholipidosis assay; settings: 48 h treatment, 100 μg/ml
[9] = tested on: SARS-CoV-2; settings: Vero E6, MOI 0.2, 72 h
[10] = tested on: SARS-CoV-2; settings: cited from earlier work
[11] = tested on: SARS-CoV-2; settings: cited from earlier work; remark: listed apart in the source
[12] = tested on: Vero E6 cells; test: Toxicity of ligand alone (LDH release, CC50); settings: drug alone, Vero E6, 72 h, LDH release
[13] = tested on: sigma-1 over sigma-2; settings: cited from earlier work
[14] = tested on: SARS-CoV-2; settings: previously published study; cited from earlier work
[15] = 45 mg/kg daily intraperitoneal from 24 hours after infection
[16] = read-out: Cytotoxicity EC50 (inhibition of SARS-CoV-2-induced cytotoxicity)
[17] = read-out: EC50 for inhibition of SARS-CoV-2 induced cytotoxicity

Compound: CC(CCCn1c(=O)sc2cc(F)ccc21)N1CCN(C2CCCCC2)CC1 (centres unmarked) [AZ66]
- decrease of SARS-CoV-2 concentration (TCID50) ([1]; 50 μg/ml): ~3 log
- EC50 ([2]; read-out: EC50 by plaque reduction assay): 15.9 µM
- EC50 ([2]; read-out: Plaque reduction EC50): 6.46 µg/mL
- Plaque reduction EC50 [2]: 6.47 µg/mL
- weight loss associated with COVID-19 [3, 15]: delayed weight loss
- reduction of cytopathic effects (CPE) by microscopy [4]: greatly reduce cytopathic effects
- EC50 [5, 16]: 45.1 µg/mL
- EC50 [5, 17]: 86.4 µM
- CC50 at 72 h [6]: 128 µg/mL (≈ 315 µM)
- viral replication reduced by (qPCR) [7]: 99.9%
- viral replication reduction (qPCR) [7]: 3 log

Compound: O=c1sc2cc(CCCF)ccc2n1CCN1CCCCCC1 [CM304]
- reduction of cytopathic effects (CPE) by microscopy [4]: unable to visibly reduce CPE
- phospholipidosis level [8]: highest mean levels of phospholipidosis
- more virus detected (RNA levels) compared to the 48 hours DMSO control [7]: 61.2%
- inhibition of SARS-CoV-2-induced cytotoxicity [9]: insignificant viral inhibition

Compound: COc1cc2c(cc1OC)CN(CCCCn1c(=O)n(C)c3ccccc31)CC2 [CM398, 1-(4-(6,7-Dimethoxy-3,4-dihydroisoquinolin-2(1H)-yl)butyl)-3-methyl-1H-benzo[d]imidazol-2(3H)-one]
- decrease of SARS-CoV-2 concentration (TCID50) ([1]; 100 μg/ml): ~1 log
- weight loss associated with COVID-19 [3, 15]: delayed weight loss
- median survival ([3]; 45 mg/kg daily intraperitoneal from 24 hours after infection, saline 5.5 days, not statistically significant): 6.5 days
- survival and recovery ([3]; 45 mg/kg daily intraperitoneal, group of 5 mice): One mouse in the CM398 group survived and regained all weight lost
- reduction of cytopathic effects (CPE) by microscopy [4]: greatly reduce cytopathic effects
- EC50 [5, 16]: 51.3 µg/mL
- EC50 [5, 17]: 130 µM
- CC50 at 72 h [6]: 111 µg/mL (≈ 280 µM)
- viral replication reduced by (qPCR) [7]: 97.5%

Compound: COc1cccc2c1CCCC2CCCN1CCN(C2CCCCC2)CC1 (centres unmarked) [PB28]
- in vitro SARS-CoV-2 inhibitory effects [10]: sub-nanomolar
- in vivo efficacy [11]: ineffective
- in vivo toxicity [11]: toxic

Compound: COc1ccc(CCN2CCN(CCCc3ccccc3)CC2)cc1OC [SA4503, cutamesine, reference compound]
- reduction of cytopathic effects (CPE) by microscopy [4]: unable to visibly reduce CPE
- Cytotoxicity CC50 [12]: 198.7 µg/mL
- viral replication reduced by (qPCR) [7]: 56.2%
- Cytotoxicity EC50 (inhibition of SARS-CoV-2-induced cytotoxicity) ([9]; LDH release): 110.5 µg/mL
- EC50 ([9]; read-out: EC50 for inhibition of SARS-CoV-2 induced cytotoxicity, LDH release): 300 µM
- preference for sigma-1 over sigma-2 [13]: > 15 fold

Compound: CN(C)CCOC(c1ccccc1)c1ccccc1 [diphenhydramine, reference compound]
- decrease of SARS-CoV-2 concentration (TCID50) ([1]; 40 μg/ml): ~2 log
- EC50 [5, 16]: 122 µg/mL
- EC50 [5, 17]: 418 µM
- reduction of N-protein RNA copies (qPCR) [7]: 32.2%

Compound: CCC(CC)COC(=O)[C@H](C)N[P@](=O)(OC[C@H]1O[C@@](C#N)(c2ccc3c(N)ncnn23)[C@H](O)[C@@H]1O)Oc1ccccc1 [remdesivir]
- reported SI (CC50/EC50) [14]: > 4.96
